Data set [1] has as its system luciferase/TSHR+/+ K562 or luciferase/TSHR+/+ FTC133 cells. As to conditions: presence or absence of MEK inhibitor (10 nM trametinib, FTC133, 48 hours in FIG. 10A).
Description: Cytotoxicity assays: Cytotoxicity assays were performed as described elsewhere (see, e.g., Sterner, R. M. et al., Blood 133, 697-709 (2019)). In summation, luciferase/TSHR+/+K562 or luciferase/TSHR+/+FTC133 cells was used as a target cell. TSHR-CAR T cells or batch-matched control donor untransduced (non-transduced) T cells (UTD) were co-cultured with target cells at serial effector: target (E:T) ratios in T cell media. Cytotoxic efficiency was calculated by bioluminescence imaging on the Xenogen IVIS-200 Spectrum (PerkinElmer, Hopkinton, MA, USA) or Promega GlowMax Explorer (Promega Corporation, Fitchburg, WI, USA) at 24 hours, 48 hours, and 72 hours, as indicated in the specific experiment.
Cytotoxicity assays were performed as described elsewhere (Sterner, R. M. et al., Blood 133, 697-709 (2019)). Luciferase*TSHR*K562 or FTC133 cells were used as target cells. UTD or TSHR-CART cells were co-cultured with target cells at various effector: target (E:T) ratios in T cell medium. Cytotoxic efficiency was calculated by bioluminescence imaging on the Promega GlowMax Explorer (Promega Corporation, Fitchburg, WI, USA) at indicated time points.
Data set [2] concerns TSHR expression in ATC PDX tumors (THJ-560 / MC-Th-560). Briefly: IHC of TSHR and pERK in ATC PDX tumors treated with MEK/BRAF inhibitors. The class given is in vivo, NSG mice. As to the method: Immunostaining was performed on paraffin-embedded tissue. Thyroid tissue microarray (TMA) was made from archival samples. Paraffin blocks were cut into 5 μm thick sections. Slides were deparaffinized, and were rehydrated with decreasing concentrations of ethanol and finally in water. Antigen retrieval was performed using Antigen Retrieval Solution (pH 6 or pH 9) (Dako, Glostrup, Denmark), for at least 15 minutes in an autoclave, and cooling for 30 minutes at room temperature. Washing slides with 3% hydrogen peroxide (Fisher Scientific, Waltham, MA, USA) for 10 minutes blocked the activity of endogenous peroxidases. Primary anti-human antibodies were used for 60 minutes at room temperature and at the following dilutions: TSHR antibody at 1:500 (abcam, ab218108, Cambridge, UK) and NIS antibody at 1:200 (ProteinTech, 24324-1-AP, Rosemont, IL, USA), CD14 antibody at 1:100 (abcam, ab183322, Cambridge, UK), CD80 at 1:1000 (abcam, ab134120, Cambridge, UK), CD206 at 1:5000 (abcam, ab64693, Cambridge, UK), Ki67 at 1:1000 (abcam, ab15580, Cambridge, UK), cleaved caspase 3 (Asp175) CC3 at 1:100 (Cell Signaling 9661, Danvers, MA, USA), and CD31 at (Santa Cruz Biotechnology, sc-1506, Dallas, TX, USA).
In this model, 5 mm^3 MC-Th-560 ATC PDX tissue was surgically implanted into the right lateral flank of NSG mice and grown to ˜100 mm^3. Mice then received daily treatment with either vehicle control or trametinib (MEK inhibitor) at the indicated doses.
The following was performed to assess the kinetics of TSHR expression after MEK/BRAF inhibition. Mice were implanted with 5 mm^3 Th-560 ATC PDX tumors. When tumors reached ˜100 mm^3, mice were treated daily with either vehicle control or with 1.5 mg/kg R05126766 plus 1 mg/kg dabrafenib.
Immunostaining was performed on paraffin-embedded tissue. Thyroid tissue microarray (TMA) was made from archival samples. Paraffin blocks were cut into 5 μm thick sections. […] The primary antibody was detected using the Envision Labeled Kit (Dako, Glostrup, Denmark) according to the manufacturer's protocol. […]

Data set [3] has as its system ATC THJ-560 PDX tumors. As to the kind of experiment: Tumor volume of ATC PDX tumors treated with MEK/BRAF inhibitors. The class given is in vivo, NSG mice. On the procedure: FIGS. 9A-9J. Treatment of thyroid tumors with MAPK inhibitors results in upregulation of TSHR. […] NSG mice treated with different daily doses of trametinib for 8 days and tumor volume regression was measured. FIG. 9B) TSHR expression was restored with higher dose of trametinib, whereas pERK expression was reduced. Right. […] Left. Association between H-score of TSHR and pERK in correlation with trametinib dose-escalation. […] Assessment of tumor volume on NSG mice treated with different doses of R05126766. […] Right. ICH tumor sections showing TSRH and pERK expression. Left. H-score of TSRH and pERK in association with increasing doses of R05126766. FIG. 9E) Experimental schema of an ATC PDX model treated with MAPK inhibitors (MEKi and BRAFi). […] Treatment was begun when tumors were ˜75-100 mm^3. […] Upper panel. H-score of TSHR in ATC-derived treated tumors (One-way ANOVA; **p<0.01; n=4 mice; error bars, SEM). Lower panel. TSHR expression assessment via IHC. […] Tumor volume assessment over a period of 7 days of MAPK inhibitors dosage. FIG. 9H) Experimental schema of an ATC PDX model treated with MEK inhibitors. NSG mice were implanted with ATC PDX tumors and treatment with MEK inhibitors (for 14 days) R05126766 and trametinib started (daily dosage) when tumors reached ˜75-100 mm^3. […] Upper panel. […]

Where [4] appears, read: one week of daily treatment at escalating doses, MC-Th-560 ATC PDX, vs placebo.

“Also recorded” adds a separate entry of the source.

Consider 2 compounds from patent US20250325586A1, “TREATING CANCER” (priority 2022, published 2025).

With `CC(=O)Nc1cccc(-n2c(=O)n(C3CC3)c(=O)c3c(Nc4ccc(I)cc4F)n(C)c(=O)c(C)c32)c1` [trametinib], the “effect of MEK inhibitor on TSHR CART cell cytotoxicity” value in data set [1] is “did not impair”.
In the case of `CNS(=O)(=O)Nc1nccc(Cc2c(C)c3ccc(Oc4ncccn4)cc3oc2=O)c1F` [Clone R05126766], the “TSHR protein expression by IHC” value in data set [2] (14 days daily oral, 1.5 mg/kg R05126766 or 1 mg/kg trametinib, vs vehicle/placebo) is given as “elevated significantly; also recorded: increased TSHR expression”. Besides, in data set [2] (setting [4]), the “TSHR expression by IHC, dose escalation” value is “increase in TSHR expression; also recorded: increased expression of TSRH” and the “pERK expression by IHC, dose escalation” value is listed as “reduction of pERK; also recorded: lower expression of pERK”. The “anti-tumor activity (tumor volume by caliper)” value in data set [3] (14 days daily, placebo, R05126766 or trametinib) is “better anti-tumor activity in comparison to trametinib”. In addition, in data set [3] (different daily doses (trametinib: 8 days)), the “tumor volume, dose escalation” value is reported as “dose-depended tumor reduction; also recorded: proportional to thyroid tumor volume reduction”.
